According to ChEMBL document CHEMBL5365466, “Discovery of Triazolyl Derivatives of Cucurbitacin B Targeting IGF2BP1 against Non-Small Cell Lung Cancer” (J Med Chem, 2023):

Assays:
[1] = Antiproliferative activity against human L02 cells assessed as cell growth inhibition at 1 uM incubated for 72 hrs by SRB assay; assay type: toxicity, cell-based
[2] = tested on: MCF7; assay: Antiproliferative activity against human MCF7 cells assessed as cell growth inhibition incubated for 72 hrs by SRB assay; assay type: functional, cell-based; settings: MCF7, 72 h
[3] = tested on: A549; assay: Induction of cell cycle arrest in human A549 cells assessed as accumulation of cells at G2 phase at 0.5 uM incubated for 24 hrs by PI staining based flow cytometric analysis (reference value: 9.26 %); assay type: functional
[4] = Selectivity index, ratio of IC50 for antiproliferative activity against human L02 cells to IC50 for antiproliferative activity against human BXPC-3 cells; assay type: toxicity, cell-based; settings: L02 cells versus BXPC-3 cells, read-out: Ratio IC50
[5] = tested on: A549; assay: Antiproliferative activity against human A549 cells assessed as cell growth inhibition incubated for 72 hrs by SRB assay; assay type: functional, cell-based; settings: A549, 72 h
[6] = tested on: A549; assay: Antitumor activity against human A549 cells xenografted in BALB/c mouse assessed as tumor growth inhibition at 0.5 mg/kg,ip administrated for 21 days; assay type: functional; settings: A549, 504 h, time 21 day, read-out: TGI
[7] = tested on: HeLa; assay: Antiproliferative activity against human HeLa cells assessed as cell growth inhibition incubated for 72 hrs by SRB assay; assay type: functional, cell-based
[8] = tested on: CFPAC-1; assay: Antiproliferative activity against human CFPAC-1 cells assessed as cell growth inhibition incubated for 72 hrs by SRB assay; assay type: functional, cell-based; settings: CFPAC-1, 72 h
[9] = tested on: A549; assay: Induction of cell cycle arrest in human A549 cells assessed as accumulation of cells at G1 phase at 0.5 uM incubated for 24 hrs by PI staining based flow cytometric analysis (reference value: 65.6 %); assay type: functional
[10] = Selectivity index, ratio of IC50 for antiproliferative activity against human L02 cells to IC50 for antiproliferative activity against human HeLa cells; assay type: toxicity, cell-based; settings: L02 cells versus HeLa cells, read-out: Ratio IC50
[11] = tested on: HCT-116; assay: Antiproliferative activity against human HCT-116 cells assessed as cell growth inhibition at 0.1 uM incubated for 72 hrs by SRB assay; assay type: functional
[12] = Selectivity index, ratio of IC50 for antiproliferative activity against human L02 cells to IC50 for antiproliferative activity against human SK-OV-3 cells
[13] = tested on: MDA-MB-231; assay: Antiproliferative activity against human MDA-MB-231 cells assessed as cell growth inhibition incubated for 72 hrs by SRB assay; assay type: functional, cell-based; settings: MDA-MB-231, 72 h
[14] = tested on: HepG2; assay: Antiproliferative activity against human HepG2 cells assessed as cell growth inhibition incubated for 72 hrs by SRB assay; assay type: functional, cell-based; settings: HepG2, 72 h
[15] = Antiproliferative activity against human L02 cells assessed as cell growth inhibition at 0.1 uM incubated for 72 hrs by SRB assay; assay type: toxicity, cell-based
[16] = Selectivity index, ratio of IC50 for antiproliferative activity against human L02 cells to IC50 for antiproliferative activity against human MCF7 cells; assay type: toxicity, cell-based; settings: L02 cells versus MCF7 cells, read-out: Ratio IC50
[17] = Selectivity index, ratio of IC50 for antiproliferative activity against human L02 cells to IC50 for antiproliferative activity against human MDA-MB-231 cells; assay type: toxicity, cell-based; settings: L02 cells versus MDA-MB-231 cells, read-out: Ratio IC50
[18] = Acute toxicity in C57BL/6J mouse assessed as death at 0.75 mg/kg,ip measured after 14 days; assay type: organism-based; settings: in vivo, 336 h, time 14 day
[19] = tested on: A549; assay: Induction of cell cycle arrest in human A549 cells assessed as accumulation of cells at S phase at 0.5 uM incubated for 24 hrs by PI staining based flow cytometric analysis (reference value: 23 %); assay type: functional
[20] = tested on: HCT-116; assay: Antiproliferative activity against human HCT-116 cells assessed as cell growth inhibition incubated for 72 hrs by SRB assay; assay type: functional, cell-based; settings: HCT-116, 72 h
[21] = tested on: PANC-1; assay: Antiproliferative activity against human PANC-1 cells assessed as cell growth inhibition incubated for 72 hrs by SRB assay; assay type: functional, cell-based; settings: PANC-1, 72 h
[22] = Antiproliferative activity against human L02 cells assessed as cell growth inhibition incubated for 72 hrs by SRB assay; assay type: toxicity, cell-based
[23] = Selectivity index, ratio of IC50 for antiproliferative activity against human L02 cells to IC50 for antiproliferative activity against human CFPAC-1 cells
[24] = Selectivity index, ratio of IC50 for antiproliferative activity against human L02 cells to IC50 for antiproliferative activity against human PANC-1 cells
[25] = tested on: SK-OV-3; assay: Antiproliferative activity against human SK-OV-3 cells assessed as cell growth inhibition incubated for 72 hrs by SRB assay; assay type: functional, cell-based; settings: SK-OV-3, 72 h
[26] = Selectivity index, ratio of IC50 for antiproliferative activity against human L02 cells to IC50 for antiproliferative activity against human HCT-116 cells; assay type: toxicity, cell-based; settings: L02 cells versus HCT-116 cells, read-out: Ratio IC50
[27] = molecular target: Insulin-like growth factor 2 mRNA-binding protein 1 (Homo sapiens, UniProt Q9NZI8); assay: Binding affinity to His-tagged recombinant IGF2BP1 (unknown origin) assessed as dissociation constant by surface plasmon resonance assay
[28] = tested on: A549; assay: Induction of apoptosis in human A549 cells at 0.5 uM incubated for 48 hrs by Annexin V-FITC/PI staining based flow cytometric analysis; assay type: functional
[29] = Selectivity index, ratio of IC50 for antiproliferative activity against human L02 cells to IC50 for antiproliferative activity against human HepG2 cells; assay type: toxicity, cell-based; settings: L02 cells versus HepG2 cells, read-out: Ratio IC50
[30] = Selectivity index, ratio of IC50 for antiproliferative activity against human L02 cells to IC50 for antiproliferative activity against human A549 cells; assay type: toxicity, cell-based; settings: L02 cells versus A549 cells, read-out: Ratio IC50
[31] = tested on: HCT-116; assay: Antiproliferative activity against human HCT-116 cells assessed as cell growth inhibition at 1 uM incubated for 72 hrs by SRB assay; assay type: functional
[32] = tested on: BXPC-3; assay: Antiproliferative activity against human BXPC-3 cells assessed as cell growth inhibition incubated for 72 hrs by SRB assay; assay type: functional, cell-based; settings: BXPC-3, 72 h
[33] = Antiproliferative activity against human L02 cells assessed as cell growth inhibition incubated for 72 hrs by MTT assay; assay type: toxicity, cell-based
[34] = tested on: HepG2; assay: Antiproliferative activity against human HepG2 cells assessed as cell growth inhibition incubated for 72 hrs by MTT assay; assay type: functional, cell-based; settings: HepG2, 72 h

Chain of Insulin-like growth factor 2 mRNA-binding protein 1 (Q9NZI8 whole entry): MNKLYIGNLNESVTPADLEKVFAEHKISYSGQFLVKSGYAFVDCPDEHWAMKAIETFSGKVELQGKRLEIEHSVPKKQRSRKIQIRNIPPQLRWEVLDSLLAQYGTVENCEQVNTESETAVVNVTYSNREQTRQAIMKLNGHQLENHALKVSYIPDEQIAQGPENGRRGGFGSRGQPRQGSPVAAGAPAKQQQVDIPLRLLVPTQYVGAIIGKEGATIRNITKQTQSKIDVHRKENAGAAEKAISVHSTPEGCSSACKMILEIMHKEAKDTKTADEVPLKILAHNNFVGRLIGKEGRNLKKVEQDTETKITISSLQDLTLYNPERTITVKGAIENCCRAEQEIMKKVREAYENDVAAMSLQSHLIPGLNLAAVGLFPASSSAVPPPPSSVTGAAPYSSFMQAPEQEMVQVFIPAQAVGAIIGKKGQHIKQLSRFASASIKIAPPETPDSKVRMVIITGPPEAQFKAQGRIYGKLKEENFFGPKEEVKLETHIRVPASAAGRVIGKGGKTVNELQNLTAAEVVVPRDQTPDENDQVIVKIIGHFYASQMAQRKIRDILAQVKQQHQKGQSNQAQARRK

Q: What does the source list for `CC(=O)OC(C)(C)/C=C/C(=O)[C@](C)(O)[C@H]1[C@H](O)C[C@@]2(C)[C@@H]3CC=C4[C@@H](C[C@H](O)C(=O)C4(C)C)[C@]3(C)C(=O)C[C@]12C`?
A: inhibition at 72 h, 1 µM [1]: 70.7%; IC50 [2]: 40 nM; Activity [3]: 37.2%; selectivity ratio [4]: 0.5; IC50 [5]: 88 nM; inhibition in vivo at 0.5 mg/kg [6]: 53%; IC50 [7]: 24 nM; IC50 [8]: 23 nM; Activity [9]: 51.1%; selectivity ratio [10]: 0.46; inhibition at 0.1 µM [11]: 69%; Ratio IC50 [12]: 0.23; IC50 [13]: 37 nM; IC50 [14]: 51 nM; inhibition at 72 h, 0.1 µM [15]: 70.6%; selectivity ratio [16]: 0.23; selectivity ratio [17]: 0.3; Activity [18]: Non-Toxic; Activity [19]: 10.2%; IC50 [20]: 19 nM; IC50 [21]: 67 nM; IC50 at 72 h [22]: 11 nM; Ratio IC50 [23]: 0.49; Ratio IC50 [24]: 0.16; IC50 [25]: 47 nM; selectivity ratio [26]: 0.57; Kd [27]: 66.2 nM; Activity [28]: 29.1%; selectivity ratio [29]: 0.22; selectivity ratio [30]: 0.13; inhibition at 1 µM [31]: 82.7%; IC50 [32]: 22 nM

Q: For `CC(=O)OC(C)(C)/C=C/C(=O)[C@](C)(O)[C@H]1[C@H](OCCCC(=O)OCCCOc2no[n+]([O-])c2S(=O)(=O)c2ccccc2)C[C@@]2(C)[C@@H]3CC=C4[C@@H](C[C@H](O)C(=O)C4(C)C)[C@]3(C)C(=O)C[C@]12C`, which IC50 at 72 h [33] is on record?
A: 2970 nM

Q: And the IC50 [34]?
A: 630 nM
